In the assay the target is Heat shock protein HSP 90-alpha (Homo sapiens, UniProt P07900). In words: Competition Assay. Conditions: pH 7.4. The source says:
To assess the affinity of compounds binding to Hsp90, we measured their ability to compete with the binding of a fluorescent analog of GA (GM-Bodipy) to Hsp90 using fluoresence polarization.

What is called IC50 is the point on the concentration scale where inhibition reaches its midpoint.

`CCOC(=O)NCc1ccc(-n2c(-c3cc(C(C)C)c(O)cc3O)n[nH]c2=S)cc1` [BX-2819] registered an IC50 of 0.04 nM. Then `Oc1ccc(-c2nnc(S)n2-c2cccc3ccccc23)c(O)c1` [Resorcinol analog, 1], with 0.3 nM; and `CCc1cc(-c2nnc(S)n2-c2cccc3ccccc23)c(O)cc1O` [Ethyl analog, 4], with 0.2 nM. Then `CC(C)c1cc(-c2n[nH]c(=S)n2-c2cccc3ccccc23)c(O)cc1O` [lspropyl analog, 5], with 0.1 nM; and `CCOC(=O)NCc1ccc(-n2c(-c3ccc(O)cc3O)n[nH]c2=S)cc1` [Ethyl carbamate analog, 3], with 0.1 nM; and `Oc1ccc(-c2nnc(S)n2-c2ccccc2)c(O)c1` [Unsubstituted phenyl ring analog, 2], with 0.5 nM.
